Laboratory results from patent US10499641B2 (priority 2010, dated 2019).

Columns and labels:
[1] = pH 7.8
Phytophthora infestans = format: in vivo; details: young tomato plants, sprayed, active ingredient concentration 100 ppm, inoculated 1 day after treatment, evaluation 7 days after inoculation; 100% = no infection

Structure (SMILES): C[Si](C)(C)C#CCOc1ccccc1C1CC(c2csc(C3CCN(C(=O)Cn4nc(C(F)F)cc4C(F)F)CC3)n2)=NO1 (stereo not drawn) [Example I-1, 2-[3,5-Bis(difluoromethyl)-1H-pyrazol-1-yl]-1-(4-{4-[5-(2-{[3-(trimethylsilyl)prop-2-yn-1-yl]oxy}phenyl)-4,5-dihydro-1,2-oxazol-3-yl]-1,3-thiazol-2-yl]piperidin-1-yl}ethanone]
- logp [b] [1]: 4.58[b]

Structure (SMILES): CC(C)(C)OC(=O)Nc1ccc(C2CC(c3csc(C4CCN(C(=O)Cn5nc(C(F)F)cc5C(F)F)CC4)n3)=NO2)cc1 (stereo not drawn) [Example I-17, tert-Butyl (4-{3-[2-(1-{[3,5-bis(difluoromethyl)-1H-pyrazol-1-yl]acetyl}piperidin-4-yl)-1,3-thiazol-4-yl]-4,5-dihydro-1,2-oxazol-5-yl}phenyl)carbamate]
- Eff. % (Phytophthora infestans): 100%
- logp [b] [1]: 3.46[b]
